# From patent publication US7335674B2, “Benzothiazole-4,7-diones and benzoxazole-4,7-diones with substituents in position 5 or 6 and method for production thereof” (Societe de Conseils de Recherches et d'Applications …, priority 2003, dated 2008)
# pIC50: −log10 of the molar value.
# Legend:
# [1] = system: Mia-Paca2 (human pancreas cancer cells); experiment: Antiproliferative activity, WST1 colorimetric test, Mia-PaCa2; assay type: cell-based; settings: MIA PaCa-2, Mia-Paca2, treated 96 hours, up to 10 μM, read-out: IC50 on the cell proliferation of the Mia-Paca2 lines
# Procedure: (§1) iii) Characterization of the Antiproliferative Activity:
# (§2) By way of example, the effect of a treatment on two human cell lines Mia-Paca2 and DU145 by the compounds of the examples described previously will be studied. The cell lines DU145 (human prostate cancer cells) and Mia-PaCa2 (human pancreas cancer cells) were acquired from the American Tissue Culture Collection (Rockville, Md., USA). The cells placed in 80 μl of Dulbecco's Modified Eagle's medium (Gibco-Brl, Cergy-Pontoise, France) completed with 10% foetal calf serum inactivated by heating (Gibco-Brl, Cergy-Pontoise, France), 50,000 units/l of penicillin and 50 mg/l of streptomycin (Gibco-Brl, 10378-057, Cergy-Pontoise, France), and 2 mM of glutamine (Gibco-Brl, Cergy-Pontoise, France) were seeded on a 96-well plate on day 0. The cells were treated on day 1 for 96 hours with increasing concentrations of each of the compounds to be tested up to 10 μM. At the end of this period, quantification of cell proliferation is evaluated by a colorimetric test based on the cleavage of the tetrazolium salt WST1 by the mitochondrial dehydrogenases in viable cells leading to the formation of formazan (Boehringer Mannheim, Meylan, France). These tests are carried out in duplicate with 8 determinations per concentration tested. For each compound to be tested, the values included in the linear part of the sigmoid were retained for a linear regression analysis and used to estimate the inhibitory concentration IC50. The products are solubilized in dimethylsulphoxide (DMSO) at 10^−2 M and finally used in culture with 0.1% DMSO.
# [2] = system: DU145 (human prostate cancer cells); experiment: Antiproliferative activity, WST1 colorimetric test, DU145; assay type: cell-based; settings: DU-145, treated 96 hours, up to 10 μM, read-out: IC50 on the cell proliferation of the DU-145 lines
# Procedure: as §1, §2
Structure (SMILES),pIC50 [1],pIC50 [2],melting point
"CCc1ccc(-c2nc3c(o2)C(=O)C=C(NCCN(C)C)C3=O)cc1 [Example 22, 5-{[2-(dimethylamino)ethyl]amino}-2-(4-ethylphenyl)-1,3-benzoxazole4,7-dione]",≥ 5.00,≥ 5.00,169 to 170 °C
"CN(C)CCNC1=CC(=O)c2oc(Cc3ccccc3)nc2C1=O [Example 23, 2-benzyl-5-{[2-(dimethylamino)ethyl]amino}-1,3-benzoxazole-4,7-dione]",≥ 5.00,≥ 5.00,135 to 136 °C
"O=C1C(NCCN2CCCC2)=CC(=O)c2oc(-c3cccc(Br)c3)nc21 [Example 24, 2-(3-bromophenyl)-5-[(2-pyrrolidin-1-ylethyl)amino]1,3-benzoxazole4,7-dione]",≥ 5.00,≥ 5.00,169 to 170 °C
"O=C1C(NCCN2CCCC2)=CC(=O)c2oc(-c3cc(F)cc(F)c3)nc21 [Example 25, 2-(3,5-difluorophenyl)-5-[(2-pyrrolidin-1-ylethyl)amino]-1,3-benzoxazole-4,7-dione]",≥ 5.00,≥ 5.00,182 to 183 °C
"O=C1C(NCCN2CCCC2)=CC(=O)c2oc(-c3cc(F)c(F)c(F)c3)nc21 [Example 26, 5-[(2-pyrrolidin-1-ylethyl)amino]-2-(3,4,5-trifluorophenyl)-1,3-benzoxazole-4,7-dione]",≥ 5.00,≥ 5.00,193 to 194 °C
"CN(C)CCNC1=CC(=O)c2nc(-c3ccccc3Br)oc2C1=O [Example 28, 2-(2-bromophenyl)-6-{[2-(dimethylamino)ethyl]amino}-1,3-benzoxazole4,7-dione]",≥ 5.00,≥ 5.00,147 to 148 °C
"CN(C)CCNC1=CC(=O)c2nc(-c3cccc(Br)c3)oc2C1=O [Example 29, 2-(3-bromophenyl)-6-{[2-(dimethylamino)ethyl]amino}-1,3-benzoxazole4,7-dione]",≥ 5.00,≥ 5.00,174 to 175 °C
"CN(C)CCNC1=CC(=O)c2nc(-c3cccc(Cl)c3)oc2C1=O [Example 30, 2-(3-chlorophenyl)-6-{[2-(dimethylamino)ethyl]amino}-1,3-benzoxazole4,7-dione]",≥ 5.00,≥ 5.00,174 to 175 °C
"CN(C)CCNC1=CC(=O)c2nc(-c3ccc(Br)cc3)oc2C1=O [Example 31, 2-(4-bromophenyl)-6-{[2-(dimethylamino)ethyl]amino}-1,3-benzoxazole-4,7-dione]",≥ 5.00,≥ 5.00,181 to 182 °C
"CN(C)CCNC1=CC(=O)c2nc(-c3cc(Br)cc(Br)c3)oc2C1=O [Example 32, 2-(3,5-dibromophenyl)-6-{[2-(dimethylamino)ethyl]amino}-1,3-benzoxazole-4,7-dione]",≥ 5.00,≥ 5.00,206 to 207 °C
"CN(C)CCNC1=CC(=O)c2nc(-c3ccc(F)cc3)oc2C1=O [Example 33, 6-{[2-(dimethylamino)ethyl]amino}-2-(4-fluorophenyl)-1,3-benzoxazole4,7-dione]",≥ 5.00,≥ 5.00,169 to 170 °C
"CN(C)CCNC1=CC(=O)c2nc(-c3cc(F)cc(F)c3)oc2C1=O [Example 34, 2-(3,5-difluorophenyl)-6-{[2-(dimethylamino)ethyl]amino}-1,3-benzoxazole-4,7-dione]",≥ 5.00,≥ 5.00,176 to 177 °C
"CN(C)CCNC1=CC(=O)c2nc(-c3cccc(F)c3F)oc2C1=O [Example 35, 2-(2,3-difluorophenyl)-6-{[2-(dimethylamino)ethyl]amino}-1,3-benzoxazole-4,7-dione]",≥ 5.00,≥ 5.00,178 to 179 °C
"CN(C)CCNC1=CC(=O)c2nc(-c3cc(F)c(F)c(F)c3)oc2C1=O [Example 36, 6-{[2-(dimethylamino)ethyl]amino}-2-(3,4,5-trifluorophenyl)-1,3-benzoxazole4,7-dione]",≥ 5.00,≥ 5.00,188 to 189 °C
"Cc1cc(-c2nc3c(o2)C(=O)C(NCCN(C)C)=CC3=O)ccc1Br [Example 37, 2-(4-bromo-3-methylphenyl)-6-{[2-(dimethylamino)ethyl]amino}-1,3-benzoxazole-4,7-dione]",≥ 5.00,≥ 5.00,165 to 166 °C
"CCc1ccc(-c2nc3c(o2)C(=O)C(NCCN(C)C)=CC3=O)cc1 [Example 38, 6-{[2-(dimethylamino)ethyl]amino}-2-(4-ethylphenyl)-1,3-benzoxazole-4,7-dione]",≥ 5.00,≥ 5.00,151 to 152 °C
"CN(C)CCNC1=CC(=O)c2nc(-c3ccc(Br)cc3Cl)oc2C1=O [Example 39, 2-(4-bromo-2-chlorophenyl)-6-{[2-(dimethylamino)ethyl]amino}-1,3-benzoxazole4,7-dione]",≥ 5.00,≥ 5.00,163 to 164 °C
"COc1ccc(-c2nc3c(o2)C(=O)C(NCCN(C)C)=CC3=O)cc1OC [Example 41, 2-(3,4-dimethoxyphenyl)-6-{[2-(dimethylamino)ethyl]amino}-1,3-benzoxazole-4,7-dione]",≥ 5.00,≥ 5.00,181 to 182 °C
"CN(C)CCNC1=CC(=O)c2nc(Cc3c(Cl)cccc3Cl)oc2C1=O [Example 42, 2-(2,6-dichlorobenzyl)-6-{[2-(dimethylamino)ethyl]amino}-1,3-benzoxazole4,7-dione]",≥ 5.00,≥ 5.00,172 to 173 °C
"CN(C)CCNC1=CC(=O)c2nc(Cc3c(F)cccc3Cl)oc2C1=O [Example 43, 2-(2-chloro-6-fluorobenzyl)-6-{[2-(dimethylamino)ethyl]amino}-1,3-benzoxazole4,7-dione]",≥ 5.00,≥ 5.00,178 to 179 °C
"CN(C)CCNC1=CC(=O)c2nc(Cc3cccc4ccccc34)oc2C1=O [Example 44, 6-{[2-(dimethylamino)ethyl]amino}-2-(1-naphthylmethyl)-1,3-benzoxazole-4,7-dione]",≥ 5.00,≥ 5.00,153 to 154 °C
"O=C1C=C(NCCN2CCCC2)C(=O)c2oc(-c3ccccc3Br)nc21 [Example 45, 2-(2-bromophenyl)-6-[(2-pyrrolidin-1-ylethyl)amino]-1,3-benzoxazole-4,7-dione]",≥ 5.00,≥ 5.00,123 to 124 °C
"O=C1C=C(NCCN2CCCC2)C(=O)c2oc(-c3cccc(Br)c3)nc21 [Example 46, 2-(3-bromophenyl)-6-[(2-pyrrolidin-1-ylethyl)amino]-1,3-benzoxazole-4,7-dione]",≥ 5.00,≥ 5.00,163 to 164 °C
"O=C1C=C(NCCN2CCCC2)C(=O)c2oc(-c3cccc(Cl)c3)nc21 [Example 47, 2-(3-chlorophenyl)-6-[(2-pyrrolidin-1-ylethyl)amino]-1,3-benzoxazole4,7-dione]",≥ 5.00,≥ 5.00,161 to 162 °C
"O=C1C=C(NCCN2CCCC2)C(=O)c2oc(-c3ccc(Br)cc3)nc21 [Example 48, 2-(4-bromophenyl)-6-[(2-pyrrolidin-1-ylethyl)amino]-1,3-benzoxazole-4,7-dione]",≥ 5.00,≥ 5.00,165 to 166 °C
"O=C1C=C(NCCN2CCCC2)C(=O)c2oc(-c3cc(Br)cc(Br)c3)nc21 [Example 49, 2-(3,5-dibromophenyl)-6-[(2-pyrrolidin-1-ylethyl)amino]-1,3-benzoxazole-4,7-dione]",≥ 5.00,≥ 5.00,202 to 203 °C
"O=C1C=C(NCCN2CCCC2)C(=O)c2oc(-c3ccc(F)cc3)nc21 [Example 50, 2-(4-fluorophenyl)-6-[(2-pyrrolidin-1-ylethyl)amino]-1,3-benzoxazole-4,7-dione]",≥ 5.00,≥ 5.00,170 to 171 °C
"O=C1C=C(NCCN2CCCC2)C(=O)c2oc(-c3cc(F)cc(F)c3)nc21 [Example 51, 2-(3,5-difluorophenyl)-6-[(2-pyrrolidin-1-ylethyl)amino]-1,3-benzoxazole-4,7-dione]",≥ 5.00,≥ 5.00,163 to 164 °C
"O=C1C=C(NCCN2CCCC2)C(=O)c2oc(-c3cc(F)c(F)c(F)c3)nc21 [Example 52, 6-[(2-pyrrolidin-1-ylethyl)amino]-2-(3,4,5-trifluorophenyl)-1,3-benzoxazole4,7-dione]",≥ 5.00,≥ 5.00,171 to 172 °C
